The values that follow are results of earlier work, collected in article PMC11011029, “Design and Preclinical Evaluation of a Novel Prostate-Specific Membrane Antigen Radioligand Modified with a Transthyretin Binder” (Cancers, 2024).

On the set-up of data set [1]: method as in PMID 29684274. As to conditions: after 24 h incubation, same experimental conditions.
In data set [2] the target is T1, PSMA (Homo sapiens, UniProt Q04609).
T1 construct: expressed in transfected cells; host or cells: PC-3 PIP cells (from Prof. Martin Pomper, Johns Hopkins)
Further details: method as in PMID 32042329. The conditions noted are these: read-out: PSMA-binding affinity KD.

For data set [3] the following is noted: undiluted blood plasma.
Data set [4] relates to PC-3 PIP/flu tumor-bearing mice. As to conditions: 24 h p.i.

T1 sequence (Q04609 whole entry): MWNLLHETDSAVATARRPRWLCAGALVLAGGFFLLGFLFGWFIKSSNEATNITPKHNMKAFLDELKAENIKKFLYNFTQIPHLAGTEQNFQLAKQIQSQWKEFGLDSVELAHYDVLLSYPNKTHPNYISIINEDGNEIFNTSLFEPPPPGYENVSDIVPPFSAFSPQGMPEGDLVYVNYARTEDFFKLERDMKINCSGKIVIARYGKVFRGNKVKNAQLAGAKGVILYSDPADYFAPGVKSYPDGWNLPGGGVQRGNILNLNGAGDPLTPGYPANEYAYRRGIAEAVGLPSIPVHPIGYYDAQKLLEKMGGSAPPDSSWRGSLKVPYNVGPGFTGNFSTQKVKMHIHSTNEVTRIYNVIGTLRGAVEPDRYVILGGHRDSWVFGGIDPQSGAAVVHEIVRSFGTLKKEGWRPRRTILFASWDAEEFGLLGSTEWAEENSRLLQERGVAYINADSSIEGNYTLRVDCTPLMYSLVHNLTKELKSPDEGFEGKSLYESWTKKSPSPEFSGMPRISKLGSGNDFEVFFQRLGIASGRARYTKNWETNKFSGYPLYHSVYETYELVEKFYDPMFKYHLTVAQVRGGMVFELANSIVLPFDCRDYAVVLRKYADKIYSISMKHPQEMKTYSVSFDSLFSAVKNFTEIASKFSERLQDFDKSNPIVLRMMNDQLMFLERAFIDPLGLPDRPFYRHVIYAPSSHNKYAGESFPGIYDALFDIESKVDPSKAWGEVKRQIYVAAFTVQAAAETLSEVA

For the substance [^177Lu]Lu-PSMA-617, the pH-dependent lipophilicity (logD) is reported as −4.4. Besides, the intact radioligand in data set [1] is on record as under 2%. Moreover, in data set [2], the Kd was 13 ± 1 nM. For the same substance, the “fraction bound to serum proteins” value in data set [3] is given as 59 ± 1%. For the same substance, the “uptake in PC-3 PIP xenografts” value in data set [4] is recorded as 37 ± 6 % IA/g.

A word on the Kd: it is the concentration at which binding is half-saturated. As a reminder, the logD is the decadic logarithm of the distribution of all forms, ionised or not, between an organic phase and buffer at a given pH.
